# According to article PMC5538625, “Perception of root‐active CLE peptides requires CORYNE function in the phloem vasculature” (EMBO Reports, 2017):
# Read-outs that look alike come from different tables or passages of the source. Where no end group is shown, it is not given here.
# Assays:
# [1] = tested on: Arabidopsis Col-0 seedlings (primary root); conditions: cited from earlier work
# Procedure: page 3: EMBO reports - Peer Review Process File - EMBO-2016-43535 including a report from the same group (Kinoshita et al, 2007 Plant Cell Physiol 48:1821; Whitford et al, 2008 PNAS 105:18625; Depuydt et al. 2013 PNAS 110:7074) where CLE6 peptides exert the root shortening activity only at a very high concentration (10 µM). Results on CLE8, CLE16, CLE17, CLE20 and CLE22 are also different from the previous report (Depuydt et al. 2013). […] Please indicate the meaning of the asterisks in column "Col-0" in Figure 2B, "***a" and "***b" in Figure 2C, describe all the peptide sequences used in this study and re-confirm if the results are correct and reproducible. The details are the following.” ….and subordinate comments.
# [2] = tested on: bam3 mutant seedlings (primary root); conditions: compared with WT; ref Depuydt et al., 2013; cited from earlier work
# Text: (§1) “6. We'd also like the authors to answer or discuss following aspects in the discussion part.” “6-1. How do you explain the insensitivity of crn to all CLE peptides? Does it control expression of CLV as well?” At this point we can only speculate on this. As we highlight in the discussion, maybe the expression of other, yet to be identified CLE receptors in the root also depends on CR ...
# BAM3 = conditions: ref Shinohara et al., 2012; cited from earlier work
# Text: page 6: EMBO reports - Peer Review Process File - EMBO-2016-43535 of both. […] Or alternatively to measure mRNA level by qRT-PCR. This will at least resolve if it's transcriptional regulation or not. 3. One way to bolster their statement about CRN's BAM3 regulation would be to do a simple complementation. If authors' already generated CRN::CRN in crn mutant background, we highly recommend that the authors use this line as well. BAM3-BAM3-CITRINE construct are introduced ...
# BAM1 = conditions: CLE9gp arabinosylated, CLE9p non-arabinosylated; ref Shinohara et al., 2012; cited from earlier work
# Text: as §1
# [3] = biological target: IDA peptide (Arabidopsis thaliana) (UniProt Q8LAD7); conditions: cited from earlier work
# [4] = biological target: IDA peptide (Arabidopsis thaliana) (UniProt Q8LAD7); conditions: cited from earlier work; remark: listed apart in the source
# [5] = tested on: Arabidopsis Col-0 seedlings (primary root); test: Root growth assay, wild type (Col-0); assay type: in vivo, Arabidopsis thaliana; conditions: 50 nM peptide, 9-day-old seedlings, primary root length, n ≥ 12
# Procedure: Plant tissue culture, plant transformation, and common molecular biology procedures such as genomic DNA isolation, genotyping, sequencing, and peptide or inhibitor treatments were performed according to standard procedures as previously described 9, 19, 44, 65.
# All mutant and transgenic lines were in the Arabidopsis Columbia‐0 (Col‐0) background. The following previously described mutant alleles were used throughout: brx‐2, bam3‐2, brx‐2 bam3, clv2‐1, serk1‐1 and serk1‐3, serk2‐1, serk3‐1, serk4‐1, serk5‐1 9, 47, 59, 66, 67, 68. The crn loss‐of‐function mutant allele (crn‐10) carries a single nucleotide insertion in front of the 7th codon, which leads to a frameshift and three subsequent premature stop codons after amino acid 10 52.
# Chain of IDA peptide (Arabidopsis thaliana) (Q8LAD7 27-77): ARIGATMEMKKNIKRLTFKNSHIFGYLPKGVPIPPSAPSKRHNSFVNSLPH
# Chain of HAESA (P47735 15-621): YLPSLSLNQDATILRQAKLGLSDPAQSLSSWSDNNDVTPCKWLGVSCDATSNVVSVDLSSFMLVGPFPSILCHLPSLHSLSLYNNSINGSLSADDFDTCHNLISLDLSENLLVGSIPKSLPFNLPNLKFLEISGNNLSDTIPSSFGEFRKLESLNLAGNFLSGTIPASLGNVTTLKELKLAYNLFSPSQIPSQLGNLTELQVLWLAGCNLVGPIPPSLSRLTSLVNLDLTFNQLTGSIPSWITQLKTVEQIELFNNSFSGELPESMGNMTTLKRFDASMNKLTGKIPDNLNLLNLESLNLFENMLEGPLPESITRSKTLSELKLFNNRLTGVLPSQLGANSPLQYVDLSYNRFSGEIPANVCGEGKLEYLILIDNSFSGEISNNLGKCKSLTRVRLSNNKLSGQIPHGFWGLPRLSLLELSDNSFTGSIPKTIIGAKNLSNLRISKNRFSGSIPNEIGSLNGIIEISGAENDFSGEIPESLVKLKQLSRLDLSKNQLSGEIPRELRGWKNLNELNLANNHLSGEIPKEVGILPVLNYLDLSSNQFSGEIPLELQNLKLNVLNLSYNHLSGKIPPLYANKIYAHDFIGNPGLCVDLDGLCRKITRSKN
substance,measurement,setting,value
"CLE6: CLE6 peptide (earlier reports; not assayed) (RVSPGGPDPQHH; ends and bridges not checked; UniProt Q8S8N3 70-81, looked up)",concentration needed for root shortening activity,"[1]; referee's comment, ref Kinoshita et al, 2007, Whitford et al, 2008, Depuydt et al. 2013",10 µM
same,root growth suppression in words,"[1]; tissue culture, nM to low μM concentrations",not root-active
"CLE9: CLE9 (earlier reports) (RLVPSGPNPLHN; ends and bridges not checked; UniProt Q9FZE4 109-120, looked up)",root response of bam3 mutants,[2],not suppressed in bam3 mutant plants
same,"binding to BAM3, in words",BAM3,BAM3 has been shown to have a binding activity to CLE9
"CLE9gp: arabinosylated CLE9 (RLVPSGPNPLHN; ends and bridges not checked; also: arabinosylated, place not given here; UniProt Q9FZE4 109-120, looked up)",Kd,BAM1,2.2 nM
"CLE9p: non-arabinosylated CLE9 (RLVPSGPNPLHN; ends and bridges not checked; UniProt Q9FZE4 109-120, looked up)",Kd,BAM1,1.8 nM
HAESA (from UniProt P47735),Kd,[3],350 nM
same,Kd,[4],20000 nM
"RKVKTGSNPLHN [CLE20, CLE20: …]",impact on root growth,[5],"significant, reproducible impact on root growth"
"RKVPNGPDPIHN [CLE25, CLE25: …]",impact on root growth,[5],"significant, reproducible impact on root growth"
"RLVHTGPNPLHN [CLE16, CLE16: …]",impact on root growth,[5],"significant, reproducible impact on root growth"
"RLVPKGPNPLHN [CLE14, CLE14: …]",impact on root growth,[5],"significant, reproducible impact on root growth"
"RLVPSGPNPLHH [CLE13, CLE13: …]",impact on root growth,[5],"significant, reproducible impact on root growth"
"RLVPSGPNPLHN [CLE9/10, CLE9/10: …]",impact on root growth,[5],"significant, reproducible impact on root growth"
